Laboratory results taken from patent US7238679B2, “Heterocycles and uses thereof” (Ariad Pharmaceuticals, Inc., priority 2002, dated 2007).

How the values were obtained:
[1] = test system: MDA-468 tumor cell line; experiment: Conventional cell-based assay against the MDA-468 tumor cell line
Text: Cell-based methods for measuring antiproliferative activity are well known and can be used for comparative characterization of compounds of this invention. In general, cell proliferation and cell viability assays are designed to provide a detectable signal when cells are metabolically active. Compounds may be tested for antiproliferative activity by measuring any observed decrease in metabolic activity of the cells after exposure of the cells to compound. Commonly used methods include, for example, measurement of membrane integrity (as a measure of cell viability)(e.g. using trypan blue exclusion) or measurement of DNA synthesis (e.g. by measuring incorporation of BrdU or 3H-thymidine).
Some methods for assaying cell proliferation use a reagent that is converted into a detectable compound during cell proliferation. Particularly preferred compounds are tetrazolium salts and include without limitation MTT (3-(4, 5-dimethylthiazol-2-yl)-2,5-diphenyltetrazolium bromide; Sigma-Aldrich, St. Louis, Mo.), MTS (3-(4,5-dimethylthiazol-2-yl)-5-(3-carboxymethoxyphenyl)-2-(4-sulfophenyl)-2H-tetrazolium), XTT (2,3-bis(2-Methoxy4-nitro-5-sulfophenyl)-2H-tetrazolium-5-carboxanilide), INT, NBT, and NTV (Bernas et al. Biochim Biophys Acta 1451(1):73–81, 1999). Preferred assays utilizing tetrazolium salts detect cell proliferation by detecting the product of the enzymatic conversion of the tetrazolium salts into blue formazan derivatives, which are readily detected by spectroscopic methods (Mosman. J. Immunol. Methods. 65:55–63, 1983).
Generally, preferred methods for assaying cell proliferation involve incubating cells in a desired growth medium with and without the compounds to be tested. […] Cells are processed, and the optical density of the cells is determined to measure the amount of formazan derivatives. […]

SMILES | melting point [°C] | IC50 [1] [µM]
CCOP(=O)(OCC)c1cc2c(Nc3ccc(F)c(Cl)c3)ncnc2cc1OC [Example 5, 4-[(3-Chloro-4-fluorophenyl)amino]-7-methoxy-6-(diethylphosphonate)-quinazoline] | 215 to 217 | < 50
CCOP(C)(=O)c1cc2c(Nc3ccc(F)c(Cl)c3)ncnc2cc1OC (stereo not drawn) [Example 7, 4-[(3-Chloro-4-fluorophenyl)amino]-7-methoxy-6-(ethyl-methylphosphinate)-quinazoline] | 199 to 200 | < 50
COc1cc2ncnc(Nc3ccc(F)c(Cl)c3)c2cc1P(C)(C)=O [Example 3, 4-[(3-Chloro-4-fluorophenyl)amino]-7-methoxy-6-(dimethylphosphinoyl)-quinazoline] | 257 to 259 | < 50
